# Experimental data published in patent US20210045385A1, “PYRIDAZINONE-SUBSTITUTED KETOXIMES AS HERBICIDES” (FMC Corporation, priority 2018, published 2021).
# How the values were obtained:
# Type in all cases: in vivo
# [1] = tested on: Italian ryegrass (Lolium multiflorum); assay: Test A preemergence, visual plant response rating; conditions: for Ryegrass, Italian plant response rating: 125 g ai/ha, preemergence, 0 to 100 scale, 0 no effect, 100 complete control; for Ryegrass, Italian plant response rating (0 to 100 scale): 500 g ai/ha Preemergence, approx. 10 days
# Method in brief: (§1)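 Greenhouse pot test in loam–sand soil mix: compound in a surfactant-containing non-phytotoxic solvent applied preemergence (directed soil spray) or postemergence (one- to two-leaf plants, 2–10 cm). Injury scored visually after ~10 days, 0–100.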
# [2] = tested on: barnyardgrass (Echinochloa crus-galli); assay: Test A preemergence, visual plant response rating; conditions: for Barnyardgrass plant response rating: 125 g ai/ha, preemergence, 0 to 100 scale, 0 no effect, 100 complete control; for Barnyardgrass plant response rating (0 to 100 scale): 500 g ai/ha Preemergence, approx. 10 days
# Method in brief: as §1
# [3] = tested on: foxtail, giant (giant foxtail, Setaria faberii); assay: Test A preemergence, visual plant response rating; conditions: for Foxtail, Giant plant response rating: 125 g ai/ha, preemergence, 0 to 100 scale, 0 no effect, 100 complete control; for Foxtail, Giant plant response rating (0 to 100 scale): 500 g ai/ha Preemergence, approx. 10 days
# Method in brief: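 Preemergence: seeds in loam/sand blend given directed soil spray of compound in non-phytotoxic solvent with surfactant. Postemergence: plants 2–10 cm, one- to two-leaf stage, sprayed with same formulation. Visual injury rated vs untreated controls after ~10 days in greenhouse, 0 (no effect) to 100 (complete control).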
# [4] = tested on: kochia (Kochia scoparia); assay: Test A preemergence, visual plant response rating; conditions: for Kochia plant response rating: 125 g ai/ha, preemergence, 0 to 100 scale, 0 no effect, 100 complete control; for Kochia plant response rating (0 to 100 scale): 500 g ai/ha Preemergence, approx. 10 days
# Method in brief: as §1
# [5] = tested on: pigweed (Amaranthus retroflexus); assay: Test A preemergence, visual plant response rating; conditions: for Pigweed plant response rating: 125 g ai/ha, preemergence, 0 to 100 scale, 0 no effect, 100 complete control; for Pigweed plant response rating (0 to 100 scale): 500 g ai/ha Preemergence, approx. 10 days
# Method in brief: as §1
# [6] = tested on: ragweed (common ragweed, Ambrosia elatior); assay: Test A preemergence, visual plant response rating; conditions: for Ragweed plant response rating: 125 g ai/ha, preemergence, 0 to 100 scale, 0 no effect, 100 complete control; for Ragweed plant response rating (0 to 100 scale): 500 g ai/ha Preemergence, approx. 10 days
# Method in brief: as §1
# [7] = tested on: Italian ryegrass (Lolium multiflorum); assay: Test A postemergence, visual plant response rating
# Method in brief: as §1
# [8] = tested on: barnyardgrass (Echinochloa crus-galli); assay: Test A postemergence, visual plant response rating; conditions: for Barnyardgrass plant response rating (0 to 100 scale): 500 g ai/ha, postemergence, 0 is no effect, 100 is complete control; for Barnyardgrass plant response rating: Postemergence, 125 g ai/ha, 0 to 100 scale (0 no effect, 100 complete control)
# Method in brief: as §1
# [9] = tested on: blackgrass (Alopecurus myosuroides); assay: Test A postemergence, visual plant response rating; conditions: for Blackgrass plant response rating (0 to 100 scale): 500 g ai/ha, postemergence, 0 is no effect, 100 is complete control; for Blackgrass plant response rating: Postemergence, 125 g ai/ha, 0 to 100 scale (0 no effect, 100 complete control)
# Method in brief: as §1
# [10] = tested on: corn (Zea mays); assay: Test A postemergence, visual plant response rating; conditions: for Corn plant response rating (0 to 100 scale): 500 g ai/ha, postemergence, 0 is no effect, 100 is complete control; for Corn plant response rating: Postemergence, 125 g ai/ha, 0 to 100 scale (0 no effect, 100 complete control)
# Method in brief: as §1
# [11] = tested on: foxtail, giant (giant foxtail, Setaria faberii); assay: Test A postemergence, visual plant response rating; conditions: for Foxtail, Giant plant response rating (0 to 100 scale): 500 g ai/ha, postemergence, 0 is no effect, 100 is complete control; for Foxtail, Giant plant response rating: Postemergence, 125 g ai/ha, 0 to 100 scale (0 no effect, 100 complete control)
# Method in brief: as §1
# [12] = tested on: galium (catchweed bedstraw, Galium aparine); assay: Test A postemergence, visual plant response rating; conditions: for Galium plant response rating (0 to 100 scale): 500 g ai/ha, postemergence, 0 is no effect, 100 is complete control; for Galium plant response rating: Postemergence, 125 g ai/ha, 0 to 100 scale (0 no effect, 100 complete control)
# Method in brief: as §1
# [13] = tested on: kochia (Kochia scoparia); assay: Test A postemergence, visual plant response rating; conditions: for Kochia plant response rating (0 to 100 scale): 500 g ai/ha, postemergence, 0 is no effect, 100 is complete control; for Kochia plant response rating: Postemergence, 125 g ai/ha, 0 to 100 scale (0 no effect, 100 complete control)
# Method in brief: as §1
# [14] = tested on: pigweed (Amaranthus retroflexus); assay: Test A postemergence, visual plant response rating; conditions: for Pigweed plant response rating (0 to 100 scale): 500 g ai/ha, postemergence, 0 is no effect, 100 is complete control; for Pigweed plant response rating: Postemergence, 125 g ai/ha, 0 to 100 scale (0 no effect, 100 complete control)
# Method in brief: as §1
# [15] = tested on: ragweed (common ragweed, Ambrosia elatior); assay: Test A postemergence, visual plant response rating; conditions: for Ragweed plant response rating (0 to 100 scale): 500 g ai/ha, postemergence, 0 is no effect, 100 is complete control; for Ragweed plant response rating: Postemergence, 125 g ai/ha, 0 to 100 scale (0 no effect, 100 complete control)
# Method in brief: as §1
# [16] = tested on: wheat (Triticum aestivum); assay: Test A postemergence, visual plant response rating; conditions: Postemergence; for Wheat plant response rating: 500 g ai/ha, 0 to 100 scale (0 no effect, 100 complete control); for Wheat plant response rating (0 to 100 scale): approx. 10 days
# Method in brief: as §1
# [17] = tested on: barnyardgrass (Echinochloa crus-galli); assay: Test B flooded paddy test, visual plant response rating; conditions: 250 g ai/ha, Flood, applied to paddy water, 2-leaf stage, evaluated after 13 to 15 days
# Method in brief: (§2)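 Visual scores compare treated plants with controls after 13 to 15 days of greenhouse growth. Treatment was made into paddy water standing 3 cm above the soil, with plants at the 2-leaf stage and flooding maintained throughout.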
# [18] = tested on: ducksalad (Heteranhera limosa); assay: as above; conditions: 250 g ai/ha, Flood, applied to paddy water, 2-leaf stage, evaluated after 13 to 15 days
# Method in brief: as §2
# [19] = tested on: rice (Oryza sativa); assay: as above; conditions: 250 g ai/ha, Flood, applied to paddy water, 2-leaf stage, evaluated after 13 to 15 days
# Method in brief: as §2
# [20] = tested on: sedge, umbrella (small-flower umbrella sedge, Cyperus difformis); assay: as above; conditions: 250 g ai/ha, Flood, applied to paddy water, 2-leaf stage, evaluated after 13 to 15 days
# Method in brief: as §2
# [21] = 500 g ai/ha, postemergence, 0 is no effect, 100 is complete control
# [22] = Postemergence, rate not given, approx. 10 days
Structure (SMILES),"Ryegrass, Italian plant response rating [1]","Ryegrass, Italian plant response rating (0 to 100 scale) [1]",Barnyardgrass plant response rating [2],Barnyardgrass plant response rating (0 to 100 scale) [2],"Foxtail, Giant plant response rating [3]","Foxtail, Giant plant response rating (0 to 100 scale) [3]",Kochia plant response rating [4],Kochia plant response rating (0 to 100 scale) [4],Pigweed plant response rating [5],Pigweed plant response rating (0 to 100 scale) [5],Ragweed plant response rating [6],Ragweed plant response rating (0 to 100 scale) [6],"Ryegrass, Italian plant response rating (0 to 100 scale) [7, 21]","Ryegrass, Italian plant response rating (0 to 100 scale) [7, 22]",Barnyardgrass plant response rating (0 to 100 scale) [8],Barnyardgrass plant response rating [8],Blackgrass plant response rating (0 to 100 scale) [9],Blackgrass plant response rating [9],Corn plant response rating (0 to 100 scale) [10],Corn plant response rating [10],also measured
"CO/N=C(/c1c(O)c(Cl)nn(C)c1=O)c1cccc2ccccc12 [Compound 145, 6-chloro-5-hydroxy-4-[(E)-(methoxyimino)-1-naphthalenylmethyl]-2-methyl-3(2H)-pyridazinone]",0,10,60,80,50,80,70,90,50,90,100,100,10,20,60,30,70,30,0,0,"Foxtail, Giant plant response rating (0 to 100 scale) [11]: 60; Foxtail, Giant plant response rating [11]: 30; Galium plant response rating (0 to 100 scale) [12]: 100; Galium plant response rating [12]: 90; Kochia plant response rating (0 to 100 scale) [13]: 90; Kochia plant response rating [13]: 80; Pigweed plant response rating (0 to 100 scale) [14]: 80; Pigweed plant response rating [14]: 30; Ragweed plant response rating (0 to 100 scale) [15]: 100; Ragweed plant response rating [15]: 100; Wheat plant response rating [16]: 0; Wheat plant response rating (0 to 100 scale) [16]: 0; Plant response rating, Barnyardgrass (0 to 100 scale, 0 is no effect, 100 is complete control) [17]: 0; Plant response rating, Ducksalad (0 to 100 scale, 0 is no effect, 100 is complete control) [18]: 0; Plant response rating, Rice (0 to 100 scale, 0 is no effect, 100 is complete control) [19]: 0; Plant response rating, Sedge, Umbrella (0 to 100 scale, 0 is no effect, 100 is complete control) [20]: 0"
CCO/N=C(\c1c(O)c(Cl)nn(C)c1=O)c1cccc2ccccc12 [Compound 146],0,0,60,60,70,80,30,100,80,100,90,100,0,0,60,30,60,30,20,30,"Foxtail, Giant plant response rating (0 to 100 scale) [11]: 70; Foxtail, Giant plant response rating [11]: 60; Galium plant response rating (0 to 100 scale) [12]: 90; Galium plant response rating [12]: 70; Kochia plant response rating (0 to 100 scale) [13]: 80; Kochia plant response rating [13]: 60; Pigweed plant response rating (0 to 100 scale) [14]: 90; Pigweed plant response rating [14]: 70; Ragweed plant response rating (0 to 100 scale) [15]: 100; Ragweed plant response rating [15]: 90; Wheat plant response rating [16]: 0; Wheat plant response rating (0 to 100 scale) [16]: 0; Plant response rating, Barnyardgrass (0 to 100 scale, 0 is no effect, 100 is complete control) [17]: 0; Plant response rating, Ducksalad (0 to 100 scale, 0 is no effect, 100 is complete control) [18]: 0; Plant response rating, Rice (0 to 100 scale, 0 is no effect, 100 is complete control) [19]: 0; Plant response rating, Sedge, Umbrella (0 to 100 scale, 0 is no effect, 100 is complete control) [20]: 0"
CCO/N=C(/c1c(O)c(Cl)nn(C)c1=O)c1cccc2ccccc12 [Compound 147],0,0,50,60,50,80,100,100,60,100,90,100,0,0,60,20,60,30,30,0,"Foxtail, Giant plant response rating (0 to 100 scale) [11]: 70; Foxtail, Giant plant response rating [11]: 30; Galium plant response rating (0 to 100 scale) [12]: 90; Galium plant response rating [12]: 90; Kochia plant response rating (0 to 100 scale) [13]: 90; Kochia plant response rating [13]: 40; Pigweed plant response rating (0 to 100 scale) [14]: 90; Pigweed plant response rating [14]: 40; Ragweed plant response rating (0 to 100 scale) [15]: 90; Ragweed plant response rating [15]: 100; Wheat plant response rating [16]: 0; Wheat plant response rating (0 to 100 scale) [16]: 0; Plant response rating, Barnyardgrass (0 to 100 scale, 0 is no effect, 100 is complete control) [17]: 0; Plant response rating, Ducksalad (0 to 100 scale, 0 is no effect, 100 is complete control) [18]: 0; Plant response rating, Rice (0 to 100 scale, 0 is no effect, 100 is complete control) [19]: 0; Plant response rating, Sedge, Umbrella (0 to 100 scale, 0 is no effect, 100 is complete control) [20]: 0"
